{"source": "ChEMBL document CHEMBL1926508", "about": "“Pharmacophore-based discovery of FXR agonists. Part I: Model development and experimental validation” (Bioorg Med Chem, 2011)", "key": {"[1]": {"target": "T1, Bile acid receptor (Mus musculus) (UniProt Q60641)", "T1 sequence (whole entry)": "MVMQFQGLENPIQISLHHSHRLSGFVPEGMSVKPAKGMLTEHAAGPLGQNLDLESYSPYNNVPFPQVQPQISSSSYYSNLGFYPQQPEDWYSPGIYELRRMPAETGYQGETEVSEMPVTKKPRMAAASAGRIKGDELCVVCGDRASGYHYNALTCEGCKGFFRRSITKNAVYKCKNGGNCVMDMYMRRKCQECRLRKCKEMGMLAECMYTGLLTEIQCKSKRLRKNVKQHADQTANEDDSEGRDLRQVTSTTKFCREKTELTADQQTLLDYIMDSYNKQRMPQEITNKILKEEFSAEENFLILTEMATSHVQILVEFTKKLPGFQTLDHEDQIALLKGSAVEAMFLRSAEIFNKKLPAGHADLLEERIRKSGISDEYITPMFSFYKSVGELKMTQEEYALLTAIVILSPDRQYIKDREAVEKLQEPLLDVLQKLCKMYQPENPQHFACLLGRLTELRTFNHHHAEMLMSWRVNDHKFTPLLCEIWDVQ", "experiment": "Agonist activity at mouse FXR expressed in HEK293 cells co-expressing mouse RXRalpha and ECRE-luc up to 100 uM by luciferase reporter gene assay", "format": "functional, cell-based"}, "[2]": {"target": "T1, Bile acid receptor (Mus musculus)", "experiment": "Agonist activity at mouse FXR expressed in HEK293 cells co-expressing mouse RXRalpha and ECRE-luc by luciferase reporter gene assay", "format": "functional, cell-based"}}, "note": "Calls of active or inactive are those of the source. The rule behind the calls is not given here."}
{"smiles": "O=C(O)c1cnc2cc(OCCOc3ccc(F)cc3)ccc2c1O", "values": [{"measurement": "Activity", "setting": "[1]", "value": "inactive"}]}
{"smiles": "Cc1cc(C(=O)CCCCCCCCC(=O)O)ccc1O", "values": [{"measurement": "Activity", "setting": "[1]", "value": "inactive"}]}
{"smiles": "COc1ccc(N2CCN(C[C@H](O)COc3cc4c(c5c3CCCC5)CCCC4)CC2)cc1", "values": [{"measurement": "Activity", "setting": "[2]", "value": "Dose-dependent effect"}]}
{"smiles": "C[C@]12CC[C@H]3[C@@H](CCC4CC(=O)/C(=C\\C(F)(F)F)C[C@@]43C)[C@@H]1CC[C@@H]2C(=O)O", "note": "(stereo partly drawn)", "values": [{"measurement": "Activity", "setting": "[1]", "value": "inactive"}]}
{"smiles": "C1=C(c2ccc(OCc3ccccc3)c(OCc3ccccc3)c2)CC2CCCCC2C1", "note": "(stereo not drawn)", "values": [{"measurement": "Activity", "setting": "[1]", "value": "inactive"}]}
{"smiles": "COc1ccc(/C(C)=N/NC(=O)CC(=O)N(C(=O)c2ccccc2)c2ccc(C)cc2)cc1", "values": [{"measurement": "Activity", "setting": "[1]", "value": "inactive"}]}
{"smiles": "CCCCc1ccc([C@@H](CC(=O)c2ccccc2)c2ccccc2)cc1", "values": [{"measurement": "Activity", "setting": "[2]", "value": "Dose-dependent effect"}]}
{"smiles": "O=C(O)c1ccc(C(=O)c2ccc(C(=O)c3ccc(C(=O)O)cc3)cc2)cc1", "values": [{"measurement": "Activity", "setting": "[1]", "value": "inactive"}]}
